Tests used:
[1] = target: Recombinant Human NF-Kappab-Inducing Kinase (NIK/MAP3K14) (Homo sapiens, UniProt Q99558); assay: Inhibition of auto-phosphorylation of recombinant human NIK/MAP3K14 (AlphaScreen); type: biochemical; conditions: NIK/MAP3K14 auto-phosphorylation, 5 microM ATP, 1 nM enzyme, 2 h at 25° C.; average of values; read-out: Assay 1 IC50
Procedure, shortened: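 GST-tagged NIK (1 nM) auto-phosphorylation with 5 µM ATP in Tris pH 7.5/MgCl2 buffer, 0.7% DMSO, 2 h at 25 °C. Phospho-IKK Ser176/180 antibody detected by AlphaScreen beads. Signal normalized to full-enzyme and no-ATP controls; IC50 from sigmoidal fit of % inhibition vs log concentration.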

[2] = test system: p-IKKα levels in L363 (NIK translocated multiple myeloma) cells; assay: Effect of compounds on p-IKKα levels in L363 cells (AlphaLISA SureFire Ultra); type: cell-based; conditions: Homo sapiens, L-363; L363 cells, BAFF stimulated, MG132, 6 h; average of values; read-out: Assay 2 IC50
Procedure, shortened: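 L363 myeloma cells were BAFF-stimulated (250 ng/ml) overnight in DMEM/0.5% BSA, then exposed 6 h at 37° C to compound (11-point 1:3 series, 0.3% DMSO) with BAFF plus 10 uM MG132. p-IKKα (Ser 176/180) was read by AlphaLISA SureFire Ultra in lysates. IC50 came from sigmoidal fits normalized to stimulated and unstimulated controls.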

Chain of Recombinant Human NF-Kappab-Inducing Kinase (NIK/MAP3K14) (Q99558 whole entry): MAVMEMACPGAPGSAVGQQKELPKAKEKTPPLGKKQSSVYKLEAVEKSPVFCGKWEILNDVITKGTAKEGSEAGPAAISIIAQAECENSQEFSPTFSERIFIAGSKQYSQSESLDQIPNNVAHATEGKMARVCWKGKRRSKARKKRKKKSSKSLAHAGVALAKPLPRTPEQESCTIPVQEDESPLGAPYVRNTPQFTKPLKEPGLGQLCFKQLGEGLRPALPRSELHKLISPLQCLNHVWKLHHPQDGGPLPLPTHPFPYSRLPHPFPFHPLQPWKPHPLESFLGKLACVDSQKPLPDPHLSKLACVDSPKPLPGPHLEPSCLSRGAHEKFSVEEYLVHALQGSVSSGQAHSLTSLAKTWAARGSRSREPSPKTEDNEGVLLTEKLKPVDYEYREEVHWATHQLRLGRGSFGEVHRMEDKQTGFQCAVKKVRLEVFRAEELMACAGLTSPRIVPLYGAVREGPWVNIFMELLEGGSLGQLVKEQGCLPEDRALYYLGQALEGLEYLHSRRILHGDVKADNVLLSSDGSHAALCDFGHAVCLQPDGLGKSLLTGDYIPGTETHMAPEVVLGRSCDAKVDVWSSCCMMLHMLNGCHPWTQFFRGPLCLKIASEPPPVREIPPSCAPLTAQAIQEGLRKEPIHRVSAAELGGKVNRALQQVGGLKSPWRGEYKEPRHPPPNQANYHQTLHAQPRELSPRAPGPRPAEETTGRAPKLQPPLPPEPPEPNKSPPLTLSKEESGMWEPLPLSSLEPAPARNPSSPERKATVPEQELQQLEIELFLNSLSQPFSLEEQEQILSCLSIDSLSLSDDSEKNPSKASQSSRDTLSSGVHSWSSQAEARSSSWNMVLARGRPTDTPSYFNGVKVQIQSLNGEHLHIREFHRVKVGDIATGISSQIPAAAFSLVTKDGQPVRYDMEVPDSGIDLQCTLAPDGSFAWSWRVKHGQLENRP

Structure (SMILES) | IC50 [1] [µM] | IC50 [2] [µM]
Cc1cc(C(N)=O)nc(-c2cccc(-c3cc([C@]4(O)CCN(C)C4=O)on3)c2)c1 [Example 155, (R)-6-(3-(5-(3-Hydroxy-1-methyl-2-oxopyrrolidin-3-yl)isoxazol-3-yl)phenyl)-4-methylpicolinamide] | < 0.1 | 0.1 to 0.5
CN1CC[C@@](O)(c2cc(-c3cccc(-c4ccc5c(c4)N(C)C(=O)CN5)c3)no2)C1=O [Example 80, (R)-7-(3-(5-(3-Hydroxy-1-methyl-2-oxopyrrolidin-3-yl)isoxazol-3-yl)phenyl)-1-methyl-3,4-dihydroquinoxalin-2(1H)-one] | > 0.501 | > 0.501
CN1CC[C@@](O)(c2cc(-c3cccc(-c4cc(-c5ccns5)cc(C(N)=O)n4)c3)no2)C1=O [Example 183, (R)-6-(3-(5-(3-Hydroxy-1-methyl-2-oxopyrrolidin-3-yl)isoxazol-3-yl)phenyl)-4-(isothiazol-5-yl)picolinamide] | < 0.1 | > 0.501
[2H]c1nc(N)c2nc(-c3cccc(-n4cc([C@@]5(O)CCN(C)C5=O)nn4)c3)ccc2n1 [Example 36, (S)-3-(1-(3-(4-Aminopyrido[3,2-d]pyrimidin-6-yl-2-d)phenyl)-1H-1,2,3-triazol-4-yl)-3-hydroxy-1-methylpyrrolidin-2-one] | 0.1 to 0.5 | > 0.501
CN1CC[C@@](O)(c2cc(-c3cccc(-c4ccc5ncoc5c4)c3)no2)C1=O [Example 69, (R)-3-(3-(3-(Benzo[d]oxazol-6-yl)phenyl)isoxazol-5-yl)-3-hydroxy-1-methylpyrrolidin-2-one] | > 0.501 | > 0.501
CN1CC[C@@](O)(c2cc(-c3cccc(-c4cc(C5CC5)c(N)c(C(N)=O)n4)c3)no2)C1=O [Example 88, (R)-3-Amino-4-cyclopropyl-6-(3-(5-(3-hydroxy-1-methyl-2-oxopyrrolidin-3-yl)isoxazol-3-yl)phenyl)picolinamide] | < 0.1 | < 0.1
Cc1cc(N2CCC[C@H](c3cc([C@]4(O)CCN(C)C4=O)on3)C2)nc2c(N)ncnc12 (single isomer, unassigned) [Example 200] | < 0.1 | > 0.501
CN1CC[C@@](O)(c2cc(-c3cccc(-c4c[nH]c5nccnc45)c3)no2)C1=O [Example 163, (R)-3-(3-(3-(5H-Pyrrolo[2,3-b]pyrazin-7-yl)phenyl)isoxazol-5-yl)-3-hydroxy-1-methylpyrrolidin-2-one] | < 0.1 | > 0.501
CN1CC[C@@](O)(c2cc(-c3cc(F)cc(-c4cc(C5CC5)c(N)c(C(N)=O)n4)c3)no2)C1=O [Example 243, (R)-3-Amino-4-cyclopropyl-6-(3-fluoro-5-(5-(3-hydroxy-1-methyl-2-oxopyrrolidin-3-yl)isoxazol-3-yl)phenyl)picolinamide] | < 0.1 | < 0.1
CN1CC[C@@](O)(c2cc(-c3cccc(-c4ncc(N)c(C(N)=O)n4)c3)no2)C1=O [Example 135, (R)-5-Amino-2-(3-(5-(3-Hydroxy-1-methyl-2-oxopyrrolidin-3-yl)isoxazol-3-yl)phenyl)pyrimidine-4-carboxamide] | < 0.1 | < 0.1
CN1CC[C@@](O)(c2cc(-c3ccc(-c4cccc(C(N)=O)n4)o3)no2)C1=O [Example 164, (R)-6-(5-(5-(3-Hydroxy-1-methyl-2-oxopyrrolidin-3-yl)isoxazol-3-yl)furan-2-yl)picolinamide] | < 0.1 | > 0.501
COc1cc(-c2cc([C@]3(O)CCN(C)C3=O)on2)cc(-c2cccc(C(N)=O)n2)c1 [Example 153, (R)-6-(3-(5-(3-Hydroxy-1-methyl-2-oxopyrrolidin-3-yl)isoxazol-3-yl)-5-methoxyphenyl)picolinamide] | < 0.1 | > 0.501
CN1CC[C@@](O)(c2cc(-c3cccc(-c4cc(N)c5nc[nH]c(=O)c5n4)c3)no2)C1=O [Example 96, (R)-8-Amino-6-(3-(5-(3-hydroxy-1-methyl-2-oxopyrrolidin-3-yl)isoxazol-3-yl)phenyl)pyrido[3,2-d]pyrimidin-4(3H)-one] | < 0.1 | > 0.501

— US20250282785A1, “PYRROLIDINONE DERIVATIVES AS INHIBITORS OF NF KAPPA B INDUCING KINASE” (priority 2022, published 2025)
